Reference: patent US9988373B2, “Nitrogen-containing six-membered cyclic derivatives and pharmaceutical composition comprising the same” (SHIONOGI & CO., LTD., priority 2013, dated 2018)

target: T1, human P2X7 receptor (Homo sapiens, UniProt Q99572, R270H); assay: Evaluation of a human P2X7 receptor inhibitory activity (Yo-Pro uptake, BzATP stimulation, FLIPR TETRA); assay type: cell-based; conditions: antagonistic activity for the human P2X7 receptor, 1321N1 cell transfected with the human P2X7 receptor gene, Yo-Pro fluorescence
T1 construct: expressed in transfected cells
T1 sequence (Q99572 1-595 R270H): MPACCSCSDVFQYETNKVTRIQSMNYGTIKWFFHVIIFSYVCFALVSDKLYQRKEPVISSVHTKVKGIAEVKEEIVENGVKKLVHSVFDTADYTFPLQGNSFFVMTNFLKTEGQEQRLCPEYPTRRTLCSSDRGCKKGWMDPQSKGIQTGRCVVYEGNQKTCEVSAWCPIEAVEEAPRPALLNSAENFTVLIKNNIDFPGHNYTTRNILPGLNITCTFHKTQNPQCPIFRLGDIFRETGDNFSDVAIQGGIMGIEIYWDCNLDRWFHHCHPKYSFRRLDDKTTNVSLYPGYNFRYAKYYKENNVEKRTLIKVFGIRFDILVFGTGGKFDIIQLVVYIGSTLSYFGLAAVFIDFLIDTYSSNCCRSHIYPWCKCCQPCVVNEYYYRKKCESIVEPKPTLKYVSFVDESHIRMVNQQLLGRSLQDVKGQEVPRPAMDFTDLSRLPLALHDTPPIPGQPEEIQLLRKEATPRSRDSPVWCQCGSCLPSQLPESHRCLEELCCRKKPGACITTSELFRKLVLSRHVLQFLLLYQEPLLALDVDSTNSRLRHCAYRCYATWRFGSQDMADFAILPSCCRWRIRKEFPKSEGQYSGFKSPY
Procedure: Test Example 1 Evaluation of a Human P2X7 Receptor Inhibitory Activity
Stably expressing cell line (1321N1 cell transfected with the human P2X7 receptor gene (GenBank accession number NM_002562.5 including T606C and G952A SNP)) was used. The cells were seeded in a 384-well microtiter plate at a concentration of 8000 cells/well and cultured in the medium (10% fetal bovine serum, 25 mM HEPES, 1% penicillin and streptomycin in DMEM) for one day at 37° C. under 5% carbon dioxide atmosphere. After replacing with 20 μL of the HBSS buffer (20 mM HEPES. 55.6 mM D-glucose, 1×HBSS(−), pH 7.4-7.5), 15 μL of 17.3 μM Yo-Pro solution in the HBSS buffer was added. The plate was placed in high-throughput cellular screening system FLIPR TETRA (Molecullar Devices, LLC.) and 15 μL of 130 μM BzATP solution in the HBSS buffer was added. Measurement of fluorescence intensity by FLIPR TETRA was started. After eight minutes, 15 μL of DMSO solutions containing different concentrations of the compound of the present invention as prepared by dilution with the HBSS buffer were dispensed to each well through the built-in automatic dispenser, and the measurement of fluorescence intensity was continued for 20 minutes. The maximum fluorescence intensity without the compound of the present invention is calculated as 0% inhibition and the maximum fluorescence intensity when the reference compound was added is calculated as 100% inhibition. Changing values of fluorescence intensity by the compound of the present invention were calculated by difference between maximum and minimum fluorescence intensity for 20 minutes. Inhibition ratios (%) were calculated from the following equation:
[formula] IC50 was calculated using logistic approximation.

IC50 | SMILES
0.044 µM | COc1cn(Cc2ccccc2)c(-c2cccc(C(F)(F)F)c2Cl)cc1=O [Compound I-015]
1 µM | COc1cn(CC#N)c(-c2cccc(C(F)(F)F)c2Cl)nc1=O [II-032]
0.21 µM | Cc1cn(Cc2ccccc2)c(-c2cccc(C(F)(F)F)c2Cl)nc1=O [II-030]
0.058 µM | O=c1nc(-c2cccc(C(F)(F)F)c2Cl)n(Cc2ccccc2)cc1F [II-031]
0.18 µM | CC(=O)Nc1cn(Cc2ccccc2)c(-c2cccc(C(F)(F)F)c2Cl)nc1=O [II-046]
0.11 µM | O=c1cc(-c2cccc(C(F)(F)F)c2Cl)n(Cc2ccccc2)cn1 [III-001]
0.041 µM | COc1cn(Cc2ccccc2)c(-c2cccc(C(F)(F)F)c2Cl)nc1=O [II-008]
0.27 µM | Nc1cn(Cc2ccccc2)c(-c2cccc(C(F)(F)F)c2Cl)nc1=O [II-045]
0.63 µM | COc1cn(Cc2ccccc2)c(C2=CCC3(CC2)CC3)nc1=O [II-073]

same assay, conditions: antagonistic activity for the human P2X7 receptor, 1321N1 cell transfected with the human P2X7 receptor gene, Yo-Pro fluorescence, class symbols

SMILES | IC50
O=c1ccn(Cc2ccon2)c(-c2cccc(C(F)(F)F)c2Cl)c1 [Compound I-065] | 1 to 10 µM
COc1ccc(-c2noc(Cn3ccc(=O)cc3-c3cccc(C(F)(F)F)c3Cl)n2)cc1 [Compound I-038] | 1 to 10 µM
COc1ccccc1Cn1ccc(=O)cc1-c1cccc(C(F)(F)F)c1Cl [Compound I-071] | 0.1 to 0.5 µM
N#CCOc1cn(Cc2ccccc2)c(-c2cccc(C(F)(F)F)c2Cl)cc1=O [Compound I-073] | < 0.05 µM
O=c1ccn(Cc2ccccc2OC(F)(F)F)c(-c2cccc(C(F)(F)F)c2Cl)c1 [Compound I-030] | 0.5 to 1 µM
CCOc1cn(Cc2ccccc2)c(-c2cccc(C(F)(F)F)c2Cl)cc1=O [Compound I-072] | < 0.05 µM
N#Cc1cn(Cc2ccccc2F)c(-c2cccc(C(F)(F)F)c2Cl)cc1=O [Compound I-002] | < 0.05 µM
O=c1ccn(Cc2cccc(=O)[nH]2)c(-c2cccc(C(F)(F)F)c2Cl)c1 [Compound I-034] | 0.5 to 1 µM
O=c1ccn(Cc2ccc3ccccc3c2)c(-c2cccc(C(F)(F)F)c2Cl)c1 [Compound I-051] | 0.5 to 1 µM
O=c1ccn(Cc2cccc(CO)c2)c(-c2cccc(C(F)(F)F)c2Cl)c1 [Compound I-035] | 0.1 to 0.5 µM
O=c1ccn(Cc2ccc(Cl)cc2)c(-c2cccc(C(F)(F)F)c2Cl)c1 [Compound I-041] | 1 to 10 µM
Cc1ccc(Cn2ccc(=O)cc2-c2cccc(C(F)(F)F)c2Cl)cc1 [Compound I-029] | 1 to 10 µM
O=c1ccn(Cc2ccc(C(F)(F)F)o2)c(-c2cccc(C(F)(F)F)c2Cl)c1 [Compound I-067] | 0.5 to 1 µM
N#Cc1cccc(Cn2cc(Cl)c(=O)cc2-c2cccc(C(F)(F)F)c2Cl)c1 [Compound I-013] | 0.1 to 0.5 µM
N#Cc1cccc(Cn2cc(N)c(=O)cc2-c2cccc(C(F)(F)F)c2Cl)c1 [Compound I-006] | 0.5 to 1 µM
Cc1cccc(Cn2ccc(=O)cc2-c2cccc(C(F)(F)F)c2Cl)c1 [Compound I-028] | 0.1 to 0.5 µM
O=c1ccn(Cc2ccc(-c3ccccc3)cc2)c(-c2cccc(C(F)(F)F)c2Cl)c1 [Compound I-043] | 1 to 10 µM
O=c1cc(-c2cccc(C(F)(F)F)c2Cl)n(Cc2cccc(Cl)c2)cc1Br [Compound I-011] | 0.1 to 0.5 µM
O=c1ccn(Cc2ccccc2-c2ccccc2)c(-c2cccc(C(F)(F)F)c2Cl)c1 [Compound I-039] | 1 to 10 µM

The next lines start with the values.

IC50 | SMILES
< 0.05 µM | Cc1ccccc1Cn1cc(Br)c(=O)nc1-c1cccc(C(F)(F)F)c1Cl [II-003]
0.05 to 0.1 µM | CC(C)Oc1cn(Cc2ccccc2)c(-c2cccc(C(F)(F)F)c2Cl)nc1=O [II-021]
0.1 to 0.5 µM | O=c1ccn(Cc2ccccc2)c(-c2cccc(C(F)(F)F)c2Cl)n1 [II-048]
0.05 to 0.1 µM | COc1cn(Cc2cccc(Cl)c2)c(-c2cccc(C(F)(F)F)c2Cl)nc1=O [II-100]
< 0.05 µM | Cc1ccccc1Cn1cc(C#N)c(=O)nc1-c1cccc(C(F)(F)F)c1Cl [II-091]
1 to 10 µM | COc1cn(Cc2ccccc2C)c(-c2ccccc2F)nc1=O [II-061]
0.5 to 1 µM | NC(=O)c1cn(Cc2ccccc2)c(-c2cccc(C(F)(F)F)c2Cl)nc1=O [II-038]
0.1 to 0.5 µM | COc1cn(Cc2cccnc2)c(-c2cccc(C(F)(F)F)c2Cl)nc1=O [II-009]
< 0.05 µM | Cc1ccccc1Cn1cc(C)c(=O)nc1-c1cccc(C(F)(F)F)c1Cl [II-010]
0.1 to 0.5 µM | COc1cn(Cc2ccccc2SC(F)(F)F)c(-c2cccc(C(F)(F)F)c2Cl)nc1=O [II-098]
1 to 10 µM | COc1cn(Cc2ccccc2C)c(C2=CCCCC2)nc1=O [II-057]
0.1 to 0.5 µM | COc1cn(Cc2ccc(F)cc2)c(-c2cccc(C(F)(F)F)c2Cl)nc1=O [II-004]
0.05 to 0.1 µM | O=c1nc(-c2cccc(C(F)(F)F)c2Cl)n(Cc2ccccc2)cc1OCCO [II-025]
0.1 to 0.5 µM | CC1(COc2cn(Cc3ccccc3)c(-c3cccc(C(F)(F)F)c3Cl)nc2=O)COC1 [II-029]
0.1 to 0.5 µM | COc1cn(Cc2ccccc2C#N)c(-c2cccc(C(F)(F)F)c2Cl)nc1=O [II-012]
0.05 to 0.1 µM | CCOc1cn(Cc2ccccc2)c(-c2cccc(C(F)(F)F)c2Cl)nc1=O [II-024]
< 0.05 µM | Cc1ccccc1Cn1cc(OCC#N)c(=O)nc1-c1cccc(C(F)(F)F)c1Cl [II-090]
1 to 10 µM | COc1cn(Cc2ccccc2C)c(-c2cccc(Cl)c2)nc1=O [II-059]
< 0.05 µM | COc1cccc(Cn2cc(OC)c(=O)nc2-c2cccc(C(F)(F)F)c2Cl)c1 [II-086]

IC50 | SMILES
0.05 to 0.1 µM | O=c1nc(-c2cccc(C(F)(F)F)c2Cl)n(Cc2ccccc2)cc1Oc1ccccc1 [II-080]
0.05 to 0.1 µM | COc1cn(Cc2cccnc2C)c(-c2cccc(C(F)(F)F)c2Cl)nc1=O [II-026]
1 to 10 µM | COc1cn(Cc2ccncc2)c(-c2cccc(C(F)(F)F)c2Cl)nc1=O [II-020]
0.1 to 0.5 µM | N#CCn1cc(-c2ccccc2)c(=O)nc1-c1cccc(C(F)(F)F)c1Cl [II-050]
0.5 to 1 µM | NCCOc1cn(Cc2ccccc2)c(-c2cccc(C(F)(F)F)c2Cl)nc1=O [II-027]
< 0.05 µM | C#CCOc1cn(Cc2ccccc2)c(-c2cccc(C(F)(F)F)c2Cl)nc1=O [II-040]
< 0.05 µM | COc1cn(Cc2ccccc2C(F)(F)F)c(-c2cccc(C(F)(F)F)c2Cl)nc1=O [II-099]
0.1 to 0.5 µM | COc1cn(Cc2ccc(Cl)cc2)c(-c2cccc(C(F)(F)F)c2Cl)nc1=O [II-096]
1 to 10 µM | COc1cn(Cc2ccccc2C)c(-c2ccc(F)cc2)nc1=O [II-063]
0.05 to 0.1 µM | COc1cn(Cc2ccccc2F)c(-c2cccc(C(F)(F)F)c2Cl)nc1=O [II-005]
0.05 to 0.1 µM | N#Cc1cn(Cc2ccc(F)cc2)c(-c2cccc(C(F)(F)F)c2Cl)nc1=O [II-049]
1 to 10 µM | COc1cn(Cc2ccccc2C)c(-c2ccc(-c3ccccc3)cc2)nc1=O [II-067]
1 to 10 µM | COc1cn(Cc2ccccc2C)c(-c2cccc(-c3ccccc3)c2)nc1=O [II-068]
0.1 to 0.5 µM | O=C(Nc1cn(Cc2ccccc2)c(-c2cccc(C(F)(F)F)c2Cl)nc1=O)OCC(F)(F)F [II-054]
1 to 10 µM | COc1cccc(-c2nc(=O)c(OC)cn2Cc2ccccc2)c1Cl [II-079]
0.5 to 1 µM | COc1cn(Cc2ccc(C)cc2)c(-c2cccc(C(F)(F)F)c2Cl)nc1=O [II-016]
< 0.05 µM | COc1cn(Cc2ccccc2Cl)c(-c2cccc(C(F)(F)F)c2Cl)nc1=O [II-095]
0.1 to 0.5 µM | CN(C)c1cn(Cc2ccccc2)c(-c2cccc(C(F)(F)F)c2Cl)nc1=O [II-051]
